{
  "source": "patent US20190002429A1",
  "about": "“Derivatives of Xanthone Compounds” (Agency for Science, Technology and Research, priority 2011, published 2019)",
  "key": {"MRSA DM21455": {"tested_on": "MRSA DM21455", "test": "MIC against MRSA DM21455", "assay_type": "cell-based, Staphylococcus aureus"}, "[1]": {"tested_on": "Clinical Staphylococcus aureus DM4001", "test": "MIC against clinical S. aureus DM4001", "assay_type": "cell-based", "settings": "Clinical S. aureus DM4001, Source: Eye"}, "[2]": {"tested_on": "Clinical Staphylococcus aureus DM4400R", "test": "MIC against clinical S. aureus DM4400R", "assay_type": "cell-based", "settings": "Source: Cornea"}, "[3]": {"tested_on": "Clinical Staphylococcus aureus DM4583R", "test": "MIC against clinical S. aureus DM4583R", "assay_type": "cell-based", "settings": "Source: Eye"}, "[4]": {"tested_on": "Clinical Staphylococcus aureus DM4299", "test": "MIC against clinical S. aureus DM4299", "assay_type": "cell-based"}, "MRSA DR42412": {"tested_on": "MRSA DR42412", "test": "MIC against MRSA DR42412", "assay_type": "cell-based, Staphylococcus aureus"}, "[5]": {"tested_on": "Straphylococcus aureus ATCC 29737", "test": "MIC against S. aureus ATCC 29737", "assay_type": "cell-based, Staphylococcus aureus"}, "[6]": {"tested_on": "Bacillus cereus ATCC11778", "test": "MIC against Bacillus cereus ATCC11778", "assay_type": "cell-based"}, "[7]": {"tested_on": "Enterococcus faecalis ATCC 29212", "test": "MIC against Enterococcus faecalis ATCC 29212", "assay_type": "cell-based"}, "[8]": {"tested_on": "Staphylococcus aureus ATCC 700699 (VISA)", "test": "MIC against S. aureus ATCC 700699 (MRSA-700699, VISA)", "assay_type": "cell-based"}, "[9]": {"tested_on": "Enterococcus faecalis ATCC 51299 VRE", "test": "MIC against Enterococcus faecalis ATCC 51299 VRE", "assay_type": "cell-based", "settings": "E. faecalis ATCC 51299 VRE; no unit in table (Example 10 MICs in μg/ml)"}, "[10]": {"tested_on": "Enterococcus faecalis 11: DS6527 (VRE 208/11)", "test": "MIC against Enterococcus faecalis DS6527 (VRE 208/11)", "assay_type": "cell-based", "settings": "E. faecalis DS6527 (VRE 208/11); no unit in table (Example 10 MICs in μg/ml)"}, "[11]": {"tested_on": "Enterococcus faecalis 11: DU9345 VRE", "test": "MIC against Enterococcus faecalis DU9345 VRE", "assay_type": "cell-based", "settings": "E. faecalis DU9345 VRE; no unit in table (Example 10 MICs in μg/ml)"}, "[12]": {"tested_on": "Staphylococcus aureus 10: DB6506 (MRSA04/10) (VISA)", "test": "MIC against S. aureus DB6506 (VISA)", "assay_type": "cell-based", "settings": "no unit in table (Example 10 MICs in μg/ml)"}, "MRSA strain DM21455": {"tested_on": "MRSA strain DM21455", "test": "Kill curve (time killing) of MRSA", "assay_type": "cell-based, Staphylococcus aureus", "settings": "FIG. 1"}, "[13]": {"test": "Calcein leakage from DOPE:DOPG liposomes", "settings": "DOPE:DOPG = 3:1", "procedure": "(§1) To further investigate antimicrobial action of the active compounds via inner membrane targeting, a calcein leakage study was performed. In brief, liposomes which mimic bacterial membrane (DOPE: […] The lipids were dissolved in methanol/chloroform (1:2, by volume). The solvent was then dried gently using a constant stream of nitrogen gas. Then, the lipid film was placed under vacuum for at least two hours. […] The hydrated vesicles were freeze-thaw (frozen in liquid nitrogen and warmed in water bath) for at least 7 cycles. Extrusion method using mini-extruder (Avanti Polar Lipid Inc.) was used to produce homogeneous large unilamellar vesicles (LUVs). The extrusion was done for at least 10 cycles using a polycarbonate membrane (Whatman, pore size 100 nm) to obtain LUVs with diameter of 100 nm. To separate the calcein encapsulated vesicles from free calcein, gel filtration column Sephadex G-50 was used. The concentrations of eluted liposomes were determined using total phosphorus determination assay. Leakage of calcein from the liposome induced by AM-series compounds could be monitored using fluorescence spectroscopy (Photon Technology International Model 814) at an excitation wavelength of 490 nm and an emission wavelength of 520 nm. […] Those compounds with […] HC50 values have stronger leakage %. […] To further investigate the inner membrane targeting action of AM-series compounds, E. coli lipid extract was used to construct the liposome. […] Therefore, the outer layer of Gram-negative bacteria (LPS) may play important role to impede the AM-series compounds to reach inner membrane. Calcein leakage data strongly support the active compounds are inner membrane targeting."}, "[14]": {"test": "Calcein leakage from DOPC:DOPS liposomes", "settings": "DOPC:DOPS = 3:1", "procedure": "as §1"}, "[15]": {"tested_on": "Mycobacterium tuberculosis"}},
  "note": "“And” between values parts separate entries of the source, which are not always exact repeats. Equal values may be shown once. Read-outs that look alike come from different tables or passages of the source.",
  "data": [
    {"substance": "3,6-bis-[4-(diethylamino)butoxy)]-1-hydroxy-7-methoxy-2,8-bis(3-methylbut-2-enyl)-9H-xanthen-9-one [AM-016]", "values": [
      {"measurement": "Minimum inhibition concentration (MIC)", "setting": "MRSA DM21455; MRSA DM21455, Source: Eye", "value": "0.39 μg/ml and 0.59 μM"},
      {"measurement": "MIC", "setting": "MRSA DM21455; MRSA-21455 (Eye), Example 10, Mueller Hinton broth dilution", "value": 1.56, "unit": "µg/mL"},
      {"measurement": "Minimum inhibition concentration (MIC)", "setting": "[1]", "value": "1.56 μg/ml and 2.35 μM"},
      {"measurement": "Minimum inhibition concentration (MIC)", "setting": "[2]", "value": "0.78 μg/ml and 1.17 μM"},
      {"measurement": "Minimum inhibition concentration (MIC)", "setting": "[3]", "value": "0.78 μg/ml and 1.17 μM"},
      {"measurement": "Minimum inhibition concentration (MIC)", "setting": "[4]", "value": "1.56 μg/ml and 2.35 μM"},
      {"measurement": "Minimum inhibition concentration (MIC)", "setting": "MRSA DR42412; MRSA DR42412, Source: Sputum", "value": "1.56 μg/ml and 2.35 μM"},
      {"measurement": "MIC", "setting": "MRSA DR42412; MRSA-42412 (Sputum), Example 10, Mueller Hinton broth dilution", "value": 0.395, "unit": "µg/mL"},
      {"measurement": "Minimum inhibition concentration (MIC)", "setting": "[5]", "value": "1.56 μg/ml and 2.35 μM"},
      {"measurement": "Minimum inhibition concentration (MIC)", "setting": "[6]", "value": "3.125 μg/ml and 4.70 μM"},
      {"measurement": "Minimum inhibition concentration (MIC)", "setting": "[7]", "value": "0.78 μg/ml and 1.17 μM"},
      {"measurement": "MIC", "setting": "[8]; MRSA-700699, Example 10, Mueller Hinton broth dilution", "value": 0.095, "unit": "µg/mL"},
      {"measurement": "Minimum inhibitory concentration", "setting": "[8]; S. aureus ATCC 700699 (VISA), no unit in table (Example 10 MICs in μg/ml)", "value": 0.39},
      {"measurement": "Minimum inhibitory concentration", "setting": "[9]", "value": 1.56},
      {"measurement": "Minimum inhibitory concentration", "setting": "[10]", "value": 0.098},
      {"measurement": "Minimum inhibitory concentration", "setting": "[11]", "value": 0.78},
      {"measurement": "Minimum inhibitory concentration", "setting": "[12]", "value": 0.78},
      {"measurement": "Time to eliminate 99.9% of MRSA", "setting": "MRSA strain DM21455", "value": "≤ 20", "unit": "min"},
      {"measurement": "% Leakage of calcein", "setting": "[13]; compound:lipid ratio 1:2", "value": 54.43, "unit": "%"},
      {"measurement": "% Leakage of calcein", "setting": "[13]; compound:lipid ratio 1:4", "value": 37.00, "unit": "%"},
      {"measurement": "% Leakage of calcein", "setting": "[13]; compound:lipid ratio 1:8", "value": 21.00, "unit": "%"},
      {"measurement": "% Leakage of calcein", "setting": "[14]; compound:lipid ratio 1:2", "value": 88.43, "unit": "%"},
      {"measurement": "% Leakage of calcein", "setting": "[14]; compound:lipid ratio 1:4", "value": 72.76, "unit": "%"},
      {"measurement": "% Leakage of calcein", "setting": "[14]; compound:lipid ratio 1:8", "value": 37.66, "unit": "%"},
      {"measurement": "HC50", "setting": "red blood cell", "value": 19.6, "unit": "µg/mL"},
      {"measurement": "Hemolytic concentration, HC50", "setting": "red blood cell", "value": 19.6, "unit": "µg/mL"},
      {"measurement": "MIC100", "setting": "[15]", "value": 4, "unit": "µM"},
      {"measurement": "MIC100", "setting": "[15]; value in brackets", "value": 2.66, "unit": "µg/mL"}
    ]}
  ]
}
